Literature values, collected in patent US20120195848A1, “STRONTIUM-CONTAINING BIOACTIVE BONE CEMENT” (The University of Hong Kong, priority 2011, published 2012).
Like-named read-outs stand apart in the source and are kept apart here.

Compound: O=S(=O)([O-])[O-].[Ba+2] [BaSO4, reference compound]
- dissolution rate (20° C.): 0.0002448 g/100 mL

Compound: O=C([O-])[O-].[Sr+2] [SrCO3, strontium carbonate]
- dissolution rate (18° C.): 0.0011 g/100 ml

Compound: O=S(=O)([O-])[O-].[Sr+2] [SrSO4, strontium sulfate]
- dissolution rate (25° C.): 0.0135 g/100 mL
